Results reported in patent publication US9902703B2, “Somatostatin modulators and uses thereof” (Crinetics Pharmaceuticals, Inc., priority 2015, dated 2018).

Molecular target: T1, human somatostatin receptor subtype 2 (Homo sapiens, UniProt P30874)
T1 construct: expressed in transfected cells; host or cells: CHO (Chinese hamster ovary) cells, G-418 selected
Experiment: cAMP assay (functional assay for SSTR2 agonists)
Type: cell-based
Settings: CHO cells expressing human SSTR2; intracellular cAMP with forskolin, HTRF; read-out: SSTR2a EC50
Excerpt: Functional Assay for SSTR2 Agonists
General overview: All five SSTR subtypes are Gi coupled G-protein coupled receptors (GPCRs) that lead to decreases in intracellular cyclic AMP (cAMP) when activated by an agonist. Therefore, measurement of intracellular cAMP levels can be used to assess whether compounds of the invention are agonists of SSTR subtypes (John Kelly, Troy Stevens, W. Joseph Thompson, and Roland Seifert, Current Protocols in Pharmacology, 2005, 2.2.1-2.2). One example of an intracellular cAMP assay is described below.
One day prior to the assay, 40,000 Chinese hamster ovary (CHO) cells expressing the human somatostatin receptor subtype 2 are plated in each well of a 96-well tissue culture plate in DM-MEM growth media (Gibco) with the following additives: 10% fetal bovine serum (Gibco), 100 U/mL penicillin (Gibco), 100 ug/mL streptomycin (Gibco), 10 mM HEPES (Gibco), 1.2 mM sodium hydroxide, 0.5 mg/mL G-418 (Gibco)). The cells are cultured overnight at 37° C., 5% CO2 and 95% humidity. On the day of the assay, the media is aspirated and the cells are washed with 1× Dulbecco's phosphate buffered saline (Gibco). Next, 5 μL of assay buffer (1× Earle's Balanced Salt Solution (Gibco), 5 mM MgCl2, 10 mM HEPES, 0.1% bovine serum albumin, 0.2 mM 3-Isobutyl-1-methylxanthine (IBMX, Biomol Research Labs)) and forskolin is added. Various dilutions of the compounds of the invention are prepared in assay buffer and 5 μL of the dilutions are added to the cultured cells and incubated for 15 minutes at 37° C. […] 10 μL of lysis buffer (HRTF cAMP kit, Cisbio) containing cAMP detection and visualization antibodies are added and the assay is allowed incubate for 1-24 hours at room temperature. The intracellular cAMP concentrations are then measured using a commercially available detection kit (for example, the cAMP HTRF kit, Cisbio). The measured intracellular cAMP concentrations are plotted vs. the concentration of the compounds of the invention and the EC50 of the compounds are calculated using standard methods.

T1 sequence (P30874 whole entry): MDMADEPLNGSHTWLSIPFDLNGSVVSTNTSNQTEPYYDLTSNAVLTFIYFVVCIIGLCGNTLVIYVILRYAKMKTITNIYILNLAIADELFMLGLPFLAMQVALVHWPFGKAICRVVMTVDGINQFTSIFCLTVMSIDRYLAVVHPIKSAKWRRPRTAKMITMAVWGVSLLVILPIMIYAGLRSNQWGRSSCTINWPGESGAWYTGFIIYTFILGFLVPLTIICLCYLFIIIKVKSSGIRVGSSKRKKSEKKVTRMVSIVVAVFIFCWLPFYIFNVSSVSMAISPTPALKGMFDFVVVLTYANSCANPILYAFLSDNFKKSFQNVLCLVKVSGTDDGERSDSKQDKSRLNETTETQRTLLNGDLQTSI

| EC50 [nM] | SMILES |
| --- | --- |
| < 100 | Cc1cc(Cl)cc(N2C=Nc3ccc(-c4cc(O)cc(F)c4)cc3C2C(=O)N(C)C[C@@H]2CCCN2)c1 (stereo partly drawn) [Compound 1-50, 3-(3-chloro-5-methylphenyl)-6-(3-fluoro-5-hydroxyphenyl)-N-methyl-N-[(2S)-pyrrolidin-2-ylmethyl]-3,4-dihydroquinazoline-4-carboxamide] |
| 1000 to 10000 | Cc1cc(C)cc(N2C=Nc3cc(C)c(-c4cccc(O)c4)cc3C2C(=O)NC[C@@H]2CCCN2)c1 (stereo partly drawn) [Compound 1-51, 3-(3,5-dimethylphenyl)-6-(3-hydroxyphenyl)-7-methyl-N-[(2S)-pyrrolidin-2-ylmethyl]-3,4-dihydroquinazoline-4-carboxamide] |
| < 100 | COc1cc(F)cc(N2C=Nc3cc(C)c(-c4cc(O)ccc4F)cc3C2C(=O)N(C)C[C@@H]2CCCN2C)c1 (stereo partly drawn) [Compound 1-52, 6-(2-fluoro-5-hydroxyphenyl)-3-(3-fluoro-5-methoxyphenyl)-N,7-dimethyl-N-{[(2S)-1-methylpyrrolidin-2-yl]methyl}-3,4-dihydroquinazoline-4-carboxamide] |
| < 100 | Cc1cc(Cl)cc(N2C=Nc3cc(C)c(-c4cccc(CC(=O)O)c4)cc3C2C(=O)N(C)C[C@@H]2CCCN2)c1 (stereo partly drawn) [Compound 1-53, 2-{3-[3-(3-chloro-5-methylphenyl)-7-methyl-4-{methyl[(2S)-pyrrolidin-2-ylmethyl]carbamoyl}-3,4-dihydroquinazolin-6-yl]phenyl}acetic acid] |
| < 100 | Cc1cc(F)cc(N2C=Nc3cc(C)c(-c4cc(O)cc(C#N)c4)cc3C2C(=O)N(C)C[C@@H]2CCCN2)c1 (stereo partly drawn) [Compound 1-54, 6-(3-cyano-5-hydroxyphenyl)-3-(3-fluoro-5-methylphenyl)-N,7-dimethyl-N-[(2S)-pyrrolidin-2-ylmethyl]-3,4-dihydroquinazoline-4-carboxamide] |
| < 100 | Cc1cc(Cl)cc(N2C=Nc3cc(C)c(-c4cccc(O)c4)cc3C2C(=O)N(C)C[C@@H]2CC(F)(F)CN2)c1 (stereo partly drawn) [Compound 1-55, 3-(3-chloro-5-methylphenyl)-N-{[(2S)-4,4-difluoropyrrolidin-2-yl]methyl}-6-(3-hydroxyphenyl)-N,7-dimethyl-3,4-dihydroquinazoline-4-carboxamide] |
| < 100 | Cc1cc(Cl)cc(N2C=Nc3cc(C)c(-c4cccc(O)c4)cc3C2C(=O)N(C)C[C@@H]2C[C@@H](F)CN2)c1 (stereo partly drawn) [Compound 1-56, 3-(3-chloro-5-methylphenyl)-N-{[(2S,4R)-4-fluoropyrrolidin-2-yl]methyl}-6-(3-hydroxyphenyl)-N,7-dimethyl-3,4-dihydroquinazoline-4-carboxamide] |
| < 100 | Cc1cc(Cl)cc(N2C=Nc3cc(Cl)c(-c4cccc(O)c4)cc3C2C(=O)N(C)C[C@@H]2CCCN2)c1 (stereo partly drawn) [Compound 1-72, 7-chloro-3-(3-chloro-5-methylphenyl)-6-(3-hydroxyphenyl)-N-methyl-N-((S)-pyrrolidin-2-ylmethyl)-3,4-dihydroquinazoline-4-carboxamide] |
| 100 to 1000 | Cc1cc(Cl)cc(N2C=Nc3cc(C)c(-c4cnn(C)c4)cc3C2C(=O)N(C)C[C@@H]2CCCN2)c1 (stereo partly drawn) [Compound 2-1, 3-(3-chloro-5-methylphenyl)-N,7-dimethyl-6-(1-methyl-1H-pyrazol-4-yl)-N-[(2S)-pyrrolidin-2-ylmethyl]-3,4-dihydroquinazoline-4-carboxamide] |
| 100 to 1000 | Cc1cc(Cl)cc(N2C=Nc3cc(C)c(-c4cccnc4)cc3C2C(=O)N(C)C[C@@H]2CCCN2)c1 (stereo partly drawn) [Compound 2-2, 3-(3-chloro-5-methylphenyl)-N,7-dimethyl-6-(pyridin-3-yl)-N-[(2S)-pyrrolidin-2-ylmethyl]-3,4-dihydroquinazoline-4-carboxamide] |
| < 100 | COc1ccc(Cl)c(-c2cc3c(cc2C)N=CN(c2cc(C)cc(Cl)c2)C3C(=O)N(C)C[C@@H]2CCCN2)c1 (stereo partly drawn) [Compound 2-3, 6-(2-chloro-5-methoxyphenyl)-3-(3-chloro-5-methylphenyl)-N,7-dimethyl-N-[(2S)-pyrrolidin-2-ylmethyl]-3,4-dihydroquinazoline-4-carboxamide] |
| < 100 | COc1ccc(C)c(-c2cc3c(cc2C)N=CN(c2cc(C)cc(Cl)c2)C3C(=O)N(C)C[C@@H]2CCCN2)c1 (stereo partly drawn) [Compound 2-4, 3-(3-chloro-5-methylphenyl)-6-(5-methoxy-2-methylphenyl)-N,7-dimethyl-N-[(2S)-pyrrolidin-2-ylmethyl]-3,4-dihydroquinazoline-4-carboxamide] |
| < 100 | COc1ccc(F)c(-c2cc3c(cc2C)N=CN(c2cc(C)cc(Cl)c2)C3C(=O)N(C)C[C@@H]2CCCN2)c1 (stereo partly drawn) [Compound 2-5, 3-(3-chloro-5-methylphenyl)-6-(2-fluoro-5-methoxyphenyl)-N,7-dimethyl-N-[(2S)-pyrrolidin-2-ylmethyl]-3,4-dihydroquinazoline-4-carboxamide] |
| 100 to 1000 | Cc1cc(Cl)cc(N2C=Nc3cc(C)c(-c4cccc(NS(C)(=O)=O)c4)cc3C2C(=O)N(C)C[C@@H]2CCCN2)c1 (stereo partly drawn) [Compound 2-6, 3-(3-chloro-5-methylphenyl)-6-(3-methanesulfonamidophenyl)-N,7-dimethyl-N-[(2S)-pyrrolidin-2-ylmethyl]-3,4-dihydroquinazoline-4-carboxamide] |
| < 100 | Cc1cc(Cl)cc(N2C=Nc3cc(C)c(-c4cccc(F)c4C)cc3C2C(=O)N(C)C[C@@H]2CCCN2)c1 (stereo partly drawn) [Compound 2-7, 3-(3-chloro-5-methylphenyl)-6-(3-fluoro-2-methylphenyl)-N,7-dimethyl-N-[(2S)-pyrrolidin-2-ylmethyl]-3,4-dihydroquinazoline-4-carboxamide] |
| < 100 | Cc1cc(Cl)cc(N2C=Nc3cc(C)c(-c4ccc(F)cc4C)cc3C2C(=O)N(C)C[C@@H]2CCCN2)c1 (stereo partly drawn) [Compound 2-8, 3-(3-chloro-5-methylphenyl)-6-(4-fluoro-2-methylphenyl)-N,7-dimethyl-N-[(2S)-pyrrolidin-2-ylmethyl]-3,4-dihydroquinazoline-4-carboxamide] |
| < 100 | Cc1cc(Cl)cc(N2C=Nc3cc(C)c(-c4cc(F)cc(C(N)=O)c4)cc3C2C(=O)N(C)C[C@@H]2CCCN2)c1 (stereo partly drawn) [Compound 2-9, 6-(3-carbamoyl-5-fluorophenyl)-3-(3-chloro-5-methylphenyl)-N,7-dimethyl-N-[(2S)-pyrrolidin-2-ylmethyl]-3,4-dihydroquinazoline-4-carboxamide] |
| < 100 | Cc1cc(Cl)cc(N2C=Nc3cc(C)c(-c4cncc(O)c4)cc3C2C(=O)N(C)C[C@@H]2CCCN2)c1 (stereo partly drawn) [Compound 2-10, 3-(3-chloro-5-methylphenyl)-6-(5-hydroxypyridin-3-yl)-N,7-dimethyl-N-[(2S)-pyrrolidin-2-ylmethyl]-3,4-dihydroquinazoline-4-carboxamide] |
| < 100 | Cc1cc(Cl)cc(N2C=Nc3cc(C)c(-c4cccc(C(N)=O)n4)cc3C2C(=O)N(C)C[C@@H]2CCCN2)c1 (stereo partly drawn) [Compound 2-11, 6-(6-carbamoylpyridin-2-yl)-3-(3-chloro-5-methylphenyl)-N,7-dimethyl-N-[(2S)-pyrrolidin-2-ylmethyl]-3,4-dihydroquinazoline-4-carboxamide] |
| < 100 | Cc1cc(Cl)cc(N2C=Nc3cc(C)c(-c4c(C)cccc4F)cc3C2C(=O)N(C)C[C@@H]2CCCN2)c1 (stereo partly drawn) [Compound 2-12, 3-(3-chloro-5-methylphenyl)-6-(2-fluoro-6-methylphenyl)-N,7-dimethyl-N-[(2S)-pyrrolidin-2-ylmethyl]-3,4-dihydroquinazoline-4-carboxamide] |
| < 100 | Cc1cc(Cl)cc(N2C=Nc3cc(C)c(-c4cc(F)ccc4C)cc3C2C(=O)N(C)C[C@@H]2CCCN2)c1 (stereo partly drawn) [Compound 2-13, 3-(3-chloro-5-methylphenyl)-6-(5-fluoro-2-methylphenyl)-N,7-dimethyl-N-[(2S)-pyrrolidin-2-ylmethyl]-3,4-dihydroquinazoline-4-carboxamide] |
| 100 to 1000 | Cc1cc(Cl)cc(N2C=Nc3cc(C)c(-c4cc(C(N)=O)ccn4)cc3C2C(=O)N(C)C[C@@H]2CCCN2)c1 (stereo partly drawn) [Compound 2-14, 6-(4-carbamoylpyridin-2-yl)-3-(3-chloro-5-methylphenyl)-N,7-dimethyl-N-[(2S)-pyrrolidin-2-ylmethyl]-3,4-dihydroquinazoline-4-carboxamide] |
| < 100 | COc1cc(C)cc(-c2cc3c(cc2C)N=CN(c2cc(C)cc(Cl)c2)C3C(=O)N(C)C[C@@H]2CCCN2)c1 (stereo partly drawn) [Compound 2-15, 3-(3-chloro-5-methylphenyl)-6-(3-methoxy-5-methylphenyl)-N,7-dimethyl-N-[(2S)-pyrrolidin-2-ylmethyl]-3,4-dihydroquinazoline-4-carboxamide] |
| < 100 | COc1cc(-c2cc3c(cc2C)N=CN(c2cc(C)cc(Cl)c2)C3C(=O)N(C)C[C@@H]2CCCN2)ccc1C (stereo partly drawn) [Compound 2-16, 3-(3-chloro-5-methylphenyl)-6-(3-methoxy-4-methylphenyl)-N,7-dimethyl-N-[(2S)-pyrrolidin-2-ylmethyl]-3,4-dihydroquinazoline-4-carboxamide] |
